Laboratory results: patent EP3207939A2, “USE OF A PROTEIN/PEPTIDE COMPLEX FOR TREATING AND PREVENTING ATHEROSCLEROSIS, METHOD FOR TREATING AND PREVENTING ATHEROSCLEROSIS (VARIANTS)” (Diamondzlite Limited, priority 2014, dated 2016)
Where two headings read alike, the source gives them in different places.

Columns and labels:
[1] = cited from earlier work
[2] = system: atherosclerotic cells of the intima of human's aorta; test: Intracellular cholesterol and lipid content in cultured atherosclerotic cells, in vitro model
[3] = system: cells extracted from normal or damaged sections of the intima of human's aorta; test: Determination of the synthesis of collagen ([3H]-proline inclusion); type: cell-based; details: Verapamil 5 x 10^-5 M; control 2500 ± 102 dpm/103
Method: Cells extracted from normal or damaged sections of the intima of human's aorta were incubated for 24 hours in the presence of 5 µCi/ml [3H]-proline. Upon completion of incubation, inclusion of marked proline into the culture medium fraction treated by collagenase was determined by the method of Peterkofsky and Diegelmann. Table 1. Influence of lipostabil, lovastatin and cellex on the cholesterol content in atherosclerotic cells of the intima of human's aorta in vitro.

[4] = system: primary culture of atherosclerotic cells; test: Ex vivo model: volunteers' blood serum added to primary culture of atherosclerotic cells, intracellular cholesterol; type: cell-based, human
Method: For the ex vivo model, blood was taken from volunteers immediately prior to Cellex intake and after the corresponding intervals after the intranasal intake (after 2, 4, and 6 hours for screening studies and assessment of the short-term effect, as well as after 4, 8, 12, and 24 hours for the assessment of duration of the effect).
Volunteers took PPC - Cellex at once in the form of an intranasal spray in complex with polynucleotides in the form of sodium salts of DNA - PPPC, 400 µg of a 0.1% solution (per total protein and DNA) - 2 injections of 200 µg in each nasal duct in the morning, the drug for comparison was Verapamil in the dose of 400 mg; the control group received intranasally 50 mM of glycine-phosphate buffer solution with the same pH (7.8) and with the same regimen. Blood was taken prior to drug or control intake (time "0") and 1, 2, 4, and 8 hours after the intake. Samples were prepared from the bloodserum, and serum samples were added to the primary culture of atherosclerotic cells. […] Consequently, starting from the 1 st hour after single intake of the claimed drug and from the 2nd hour after Verapamil intake, blood serum acquires antiatherosclerotic properties manifested in the contribution to reverse cholesterol transport from atherosclerotic cells. Antiatherosclerotic properties of serum are preserved for at least 12 hours after Verapamil intake and up to 18 hours after intake of the claimed drug. Table 5. Comparative table of the antiatherogenic action of Cellex and Verapamil in the ex vivo model.

[5] = system: cultured atherosclerotic cells; test: Inclusion of [3H] thymidine (proliferative activity) in cultured atherosclerotic cells; type: cell-based, human
Method: For research on the impact of the original PPC and PPPC with the conditional name "Cellex" (hereinafter - Cellex, as a modifier and activator of biological reactions) on the level of reduction of the atherogenic potential of blood serum of patients having atherosclerosis according to the known method, a primary culture of subendothelial cells of the human's aorta was obtained from various sections of the intima of the thoracic aorta of men and women aged 40-65 years within 1.5-3 hours after sudden death, which differed by the degree of atherosclerotic disease, then it was treated by collagenase, and the cells were cultured.

[6] = rabbits, 28 days, food with 1% cholesterol, 0.6 g of beta-carotene per 1 kg of food; cited from earlier work
[7] = guinea pigs, 12 weeks, cited from earlier work
[8] = hypersensitive rats, 125-500 mg per 1 kg of food with cholesterol-rich food, 44 days; cited from earlier work
[9] = smoking people, 20 mg/day, 14 weeks; cited from earlier work
[10] = rabbits, single peroral administration; cited from earlier work
[11] = long-term administration, daily dose of 3 g

N[C@H](Cc1cc(I)c(Oc2cc(I)c(O)c(I)c2)c(I)c1)C(=O)O [D-thyroxine]
reduction of the concentration of low-density lipoproteins ([1]; daily dose of 4-8 mg): 20%

CC[C@H](C)C(=O)O[C@H]1C[C@@H](C)C=C2C=C[C@H](C)[C@H](CC[C@@H]3C[C@@H](O)CC(=O)O3)[C@H]21 [Lovastatin]
Content of intracellular cholesterol ([2]; concentration 10^-6 M, control 105 ± 11, average of three independent experiments): 110 ± 10 µg/mg

COc1ccc(CCN(C)CCCC(C#N)(c2ccc(OC)c(OC)c2)C(C)C)cc1OC (centres unmarked) [Verapamil]
Synthesis of collagen [3]: 74 ± 5 % of control | Antiatherosclerotic properties of serum are preserved ([4]; after single intake): at least 12 hours | blood serum acquires antiatherosclerotic properties, starting from ([4]; after single intake): 2 h | Intracellular cholesterol content ([4]; serum 1 hr after Verapamil 400 mg, control 221 ± 13 µg cholesterol per 1 mg cellular protein): 97 ± 10 % of control | Intracellular cholesterol content ([4]; serum 2 hr after Verapamil 400 mg): 84 ± 6 % of control | Intracellular cholesterol content ([4]; serum 4 hr after Verapamil 400 mg): 77 ± 8 % of control | Intracellular cholesterol content ([4]; serum 8 hr after Verapamil 400 mg): 85 ± 4 % of control | Intracellular cholesterol content ([4]; serum 12 hr after Verapamil 400 mg): 90 ± 6 % of control | Intracellular cholesterol content ([4]; serum 18 hr after Verapamil 400 mg): 104 ± 4 % of control | Triglycerides ([2]; Verapamil 5 x 10^-5 M, control 12.1 ± 1.7 µg/105): 76 ± 2 % of control | Free cholesterol ([2]; Verapamil 5 x 10^-5 M, control 46.8 ± 5.3 µg/105): 90 ± 8 % of control | Phospholipids ([2]; Verapamil 5 x 10^-5 M, control 71.4 ± 10.9 µg/105): 61 ± 8 % of control | Total cholesterol ([2]; Verapamil 10^-5 M): 61 ± 4 % of control | Total cholesterol ([2]; Verapamil 10^-6 M): 82 ± 8 % of control | Total cholesterol ([2]; Verapamil 10^-7 M, control 57.4 ± 1.2 µg/105): 104 ± 5 % of control | Inclusion of [3H] thymidine ([5]; Verapamil 10^-4 M): 20 ± 2 % of control | Inclusion of [3H] thymidine ([5]; Verapamil 10^-5 M): 34 ± 2 % of control | Inclusion of [3H] thymidine ([5]; Verapamil 10^-6 M): 50 ± 2 % of control | Inclusion of [3H] thymidine ([5]; Verapamil 10^-7 M): 86 ± 7 % of control

CC1=C(/C=C/C(C)=C/C=C/C(C)=C/C=C/C=C(C)/C=C/C=C(C)/C=C/C2=C(C)CCCC2(C)C)C(C)(C)CCC1 [beta-carotene]
LDL resistance to oxidation [6]: no impact of beta-carotene on LDL resistance to oxidation was detected | elasticity of endothelial vessels [6]: elasticity of endothelial vessels was preserved | sizes of sclerotic clots in aorta ([7]; 50 mg of beta-carotene/100 g of food): significant reduction | cholesterol and triglyceride levels in blood serum ([7]; daily 0.2% cholesterol and 15-30 mg of beta-carotene): no verifiable differences | cholesterol and triglyceride levels in blood serum [8]: dose-dependent reduction | beta-carotene level in blood serum increased [9]: 15 times | level of lipoproteins in blood serum [9]: no visible effect was identified

CC(C)=CCC/C(C)=C/C=C/C(C)=C/C=C/C(C)=C/C=C/C=C(C)/C=C/C=C(C)/C=C/C=C(\C)CCC=C(C)C [lycopene]
return of blood serum concentration to the initial level [10]: 24 h | time of maximum concentration in blood serum [10]: 8 h

O=C(O)c1cccnc1 [nicotinic acid]
cholesterol level in blood serum lowered [1, 11]: 10% | triglycerides in blood serum lowered [1, 11]: 20%
